Measurements as given in ChEMBL document CHEMBL4680322, “Mono- and bis-pyrazolophthalazines: Design, synthesis, cytotoxic activity, DNA/HSA binding and molecular docking studies” (Bioorg Med Chem, 2021).
Calls of active or inactive are those of the source. The calls are words filed in the database; no cut-off is given here.

Assays:
A549 [1] = experiment: Cytotoxicity against human A549 cells assessed as reduction in cell viability measured after 24 hrs by MTT assay; type: functional, cell-based; conditions: A549, 24 h
HepG2 = experiment: Cytotoxicity against human HepG2 cells assessed as reduction in cell viability measured after 24 hrs by MTT assay; type: functional, cell-based; conditions: HepG2, 24 h
MCF7 [2] = experiment: Cytotoxicity against human MCF7 cells assessed as reduction in cell viability measured after 24 hrs by MTT assay; type: functional, cell-based; conditions: MCF7, 24 h
HT-29 = experiment: Cytotoxicity against human HT-29 cells assessed as reduction in cell viability measured after 24 hrs by MTT assay; type: functional, cell-based; conditions: HT-29, 24 h
MCF-10A = experiment: Cytotoxicity against human MCF-10A cells assessed as reduction in cell viability; type: cell-based
MRC5 = experiment: Cytotoxicity against human MRC5 cells assessed as reduction in cell viability; type: cell-based
Albumin [3] = molecular target: T1, Albumin (Homo sapiens, UniProt P02768); experiment: Binding affinity to human serum albumin assessed as alpha-helix perturbation with reduction in absorption intensity at 214 nm causing blue shift at 2 to 187 uM by UV-Visible spectroscopy; type: ADME, cell-free; conditions: dose 2-187 µM
T1 sequence (P02768 whole entry): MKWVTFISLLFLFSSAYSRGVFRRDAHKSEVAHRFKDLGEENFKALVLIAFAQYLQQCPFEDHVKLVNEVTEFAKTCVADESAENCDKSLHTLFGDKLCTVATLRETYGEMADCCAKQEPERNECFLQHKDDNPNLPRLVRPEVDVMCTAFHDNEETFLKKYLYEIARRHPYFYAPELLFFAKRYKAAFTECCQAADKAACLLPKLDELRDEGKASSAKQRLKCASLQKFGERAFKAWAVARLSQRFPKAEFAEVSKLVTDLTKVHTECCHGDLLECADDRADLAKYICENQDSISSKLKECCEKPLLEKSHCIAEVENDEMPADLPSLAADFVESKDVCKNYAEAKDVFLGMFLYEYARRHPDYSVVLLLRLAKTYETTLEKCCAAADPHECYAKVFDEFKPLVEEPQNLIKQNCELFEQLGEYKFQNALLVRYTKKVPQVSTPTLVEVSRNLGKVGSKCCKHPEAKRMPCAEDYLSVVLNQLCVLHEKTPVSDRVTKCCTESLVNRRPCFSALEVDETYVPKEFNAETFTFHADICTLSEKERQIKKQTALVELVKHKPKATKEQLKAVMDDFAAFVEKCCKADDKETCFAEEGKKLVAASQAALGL

Albumin [4] = molecular target: T1, Albumin; experiment: Binding affinity to human serum albumin assessed as conformational changes at 2 to 187 uM by UV-Visible spectroscopy; type: ADME, cell-free; conditions: dose 2-187 µM
Albumin [5] = molecular target: T1, Albumin; experiment: Binding affinity to human serum albumin assessed as microenvironmental changes at 2 to 187 uM by UV-Visible spectroscopy; type: ADME, cell-free; conditions: dose 2-187 µM
Albumin [6] = molecular target: T1, Albumin; experiment: Binding affinity to human serum albumin assessed as apparent binding constant for protein-compound complex by B-H plot analysis; type: ADME, cell-free
Albumin [7] = molecular target: T1, Albumin; experiment: Binding affinity to human serum albumin assessed as compound-protein complex stoichiometry ratio of 1:1 by B-H plot analysis; type: ADME, cell-free
Albumin [8] = molecular target: T1, Albumin; experiment: Binding affinity to human serum albumin assessed as induction of secondary structural changes by measuring decrease in alpha content at 187 uM by circular dichroism spectroscopy relative to control; type: cell-free; parameters: scale not given: the % may be the effect or the level left
Albumin [9] = molecular target: T1, Albumin; experiment: Binding affinity to human serum albumin assessed as zeta potential by measuring surface charge (reference value: -16.15 mV); type: ADME, cell-free
Albumin [10] = molecular target: T1, Albumin; experiment: Binding affinity to human serum albumin assessed as change in hydrodynamic radius by dynamic light scattering analysis (reference value: 3.56 nanometer); type: ADME, cell-free
Calf thymus DNA [11] = experiment: Binding affinity to calf thymus DNA assessed as DNA-compound complex formation causing decrease in band intensity at 3 to 187 uM and pH 7.4 by UV-Visible spectroscopy; conditions: Bos taurus, dose 3-187 µM
Calf thymus DNA [12] = experiment: Binding affinity to calf thymus DNA assessed as DNA-compound complex formation causing decrease in lambda-max shift at 3 to 187 uM and pH 7.4 by UV-Visible spectroscopy; conditions: Bos taurus, dose 3-187 µM
Calf thymus DNA [13] = experiment: Binding affinity to calf thymus DNA assessed as compound-DNA complex stoichiometry ratio of 1:1 by B-H plot analysis; conditions: Bos taurus
Calf thymus DNA [14] = experiment: Binding affinity to calf thymus DNA assessed as apparent binding constant for DNA-compound complex by B-H plot analysis; conditions: Bos taurus
Calf thymus DNA [15] = experiment: Binding affinity to calf thymus DNA assessed as decrease in positive ellipticity by retaining basic CD spectrum shape at 187 uM by circular dichroism spectroscopy; conditions: Bos taurus
Calf thymus DNA [16] = experiment: Binding affinity to calf thymus DNA assessed as zeta potential (reference value: -24.16 mV); type: tissue-based; conditions: Bos taurus
A549 [17] = experiment: Potency index, ratio of doxorubicin IC50 to test compound IC50 for human A549 cells assessed as reduction in cell viability measured after 24 hrs by MTT assay; type: functional
MCF7 [18] = experiment: Potency index, ratio of doxorubicin IC50 to test compound IC50 for human MCF7 cells assessed as reduction in cell viability measured after 24 hrs by MTT assay; type: functional

Row | Compound | IC50 (A549 [1]) | IC50 (HepG2) | IC50 (MCF7 [2]) | IC50 (HT-29) | also measured
1 | N#CC1=C(N)n2c(=O)c3ccccc3c(=O)n2C1c1ccc(C2C(C#N)=C(N)n3c(=O)c4ccccc4c(=O)n32)cc1 (centres undefined) | 17.6 µM | 84.6 µM | 11.4 µM | 90.9 µM | –
2 | N#CC1=C(N)n2c(=O)c3ccccc3c(=O)n2C1c1ccc(OCCCCOc2ccc(C3C(C#N)=C(N)n4c(=O)c5ccccc5c(=O)n43)cc2)cc1 (centres undefined) | 264 µM | 426 µM | 155 µM | 419 µM | –
3 | N#CC1=C(N)n2c(=O)c3ccccc3c(=O)n2C1c1ccccc1OCCOc1ccccc1C1C(C#N)=C(N)n2c(=O)c3ccccc3c(=O)n21 (centres undefined) | 1.35 µM | 11.6 µM | 0.49 µM | 3.71 µM | IC50 (MCF-10A): 61.2 µM; IC50 (MRC5): 71.2 µM; Activity (Albumin [3]): Active; Activity (Albumin [4]): Active; Activity (Albumin [5]): Active; Kapp (Albumin [6]): 3.8 10^4/M; Activity (Albumin [7]): Active; Activity (Albumin [8]): 48.08%; Activity (Albumin [9]): -14.41 mV; Activity (Albumin [10]): 5.28 nm; Activity (Calf thymus DNA [11]): Active; Activity (Calf thymus DNA [12]): Active; Activity (Calf thymus DNA [13]): Active; Kapp (Calf thymus DNA [14]): 5 10^4/M; Activity (Calf thymus DNA [15]): -17.8 mV; Activity (Calf thymus DNA [16]): Active; Ratio IC50 (A549 [17]): 2; Ratio IC50 (MCF7 [18]): 2
4 | COc1ccc(C2C(C#N)=C(N)n3c(=O)c4ccccc4c(=O)n32)cc1 (centres undefined) | 39.8 µM | 93.8 µM | 23.9 µM | 66.5 µM | –
5 | N#CC1=C(N)n2c(=O)c3ccccc3c(=O)n2C1c1cccc(Cl)c1 (centres undefined) | 11.6 µM | 28.2 µM | 7.84 µM | 69.3 µM | –
6 | N#CC1=C(N)n2c(=O)c3ccccc3c(=O)n2C1c1ccccc1OCCCCOc1ccccc1C1C(C#N)=C(N)n2c(=O)c3ccccc3c(=O)n21 (centres undefined) | 111 µM | 244 µM | 44.6 µM | 82.4 µM | –
7 | N#CC1=C(N)n2c(=O)c3ccccc3c(=O)n2C1c1ccc(Br)cc1 (centres undefined) | 81.6 µM | 40.5 µM | 5.97 µM | 31 µM | –
8 | COc1cccc(C2C(C#N)=C(N)n3c(=O)c4ccccc4c(=O)n32)c1 (centres undefined) | 38.3 µM | 178 µM | 23.2 µM | 107 µM | –
9 | COc1ccccc1C1C(C#N)=C(N)n2c(=O)c3ccccc3c(=O)n21 (centres undefined) | 627 µM | 697 µM | 455 µM | 79.7 µM | –
10 | N#CC1=C(N)n2c(=O)c3ccccc3c(=O)n2C1c1cccc(C2C(C#N)=C(N)n3c(=O)c4ccccc4c(=O)n32)c1 (centres undefined) | 18.2 µM | 50.8 µM | 8.66 µM | 186 µM | –
11 | N#CC1=C(N)n2c(=O)c3ccccc3c(=O)n2C1c1ccc(O)c([N+](=O)[O-])c1 (centres undefined) | 47.5 µM | 19.5 µM | 77.4 µM | 124 µM | –
12 | N#CC1=C(N)n2c(=O)c3ccccc3c(=O)n2C1c1ccc(OCCOc2ccc(C3C(C#N)=C(N)n4c(=O)c5ccccc5c(=O)n43)cc2)cc1 (centres undefined) | 183 µM | 249 µM | 91.3 µM | 268 µM | –
13 | N#CC1=C(N)n2c(=O)c3ccccc3c(=O)n2C1c1ccccc1Cl (centres undefined) | 1.25 µM | 27.9 µM | 7.32 µM | 7.14 µM | IC50 (MCF-10A): 213 µM; IC50 (MRC5): 388 µM; Activity (Albumin [3]): Active; Activity (Albumin [4]): Active; Activity (Albumin [5]): Active; Kapp (Albumin [6]): 5.2 10^3/M; Activity (Albumin [7]): Active; Activity (Albumin [8]): 47.71%; Activity (Albumin [9]): -13.25 mV; Activity (Albumin [10]): 5.13 nm; Activity (Calf thymus DNA [11]): Active; Activity (Calf thymus DNA [12]): Active; Activity (Calf thymus DNA [13]): Active; Kapp (Calf thymus DNA [14]): 4.2 10^4/M; Activity (Calf thymus DNA [15]): -18.1 mV; Activity (Calf thymus DNA [16]): Active
14 | N#CC1=C(N)n2c(=O)c3ccccc3c(=O)n2C1c1ccccc1 (centres undefined) | 39.7 µM | 81.7 µM | 41.6 µM | 132 µM | –
15 | COc1ccc(C2C(C#N)=C(N)n3c(=O)c4ccccc4c(=O)n32)cc1OC (centres undefined) | 24.7 µM | 73.5 µM | 5.1 µM | 36.4 µM | –
16 | N#CC1=C(N)n2c(=O)c3ccccc3c(=O)n2C1c1ccc(OCCCOc2ccc(C3C(C#N)=C(N)n4c(=O)c5ccccc5c(=O)n43)cc2)cc1 (centres undefined) | 2.47 µM | 36.2 µM | 0.66 µM | 3.1 µM | –
17 | N#CC1=C(N)n2c(=O)c3ccccc3c(=O)n2C1c1cccc([N+](=O)[O-])c1 (centres undefined) | 18.3 µM | 12.6 µM | 39.9 µM | 41.1 µM | –
18 | N#CC1=C(N)n2c(=O)c3ccccc3c(=O)n2C1c1ccccc1OCCCOc1ccccc1C1C(C#N)=C(N)n2c(=O)c3ccccc3c(=O)n21 (centres undefined) | 104 µM | 104 µM | 35.2 µM | 44.6 µM | –
19 | N#CC1=C(N)n2c(=O)c3ccccc3c(=O)n2C1c1ccc(Cl)cc1 (centres undefined) | 40.6 µM | 16.8 µM | 5.53 µM | 25.4 µM | –
20 | N#CC1=C(N)n2c(=O)c3ccccc3c(=O)n2C1c1ccc([N+](=O)[O-])cc1 (centres undefined) | 212 µM | 170 µM | 60.8 µM | 79.1 µM | –
21 | N#CC1=C(N)n2c(=O)c3ccccc3c(=O)n2C1c1ccc(Cl)cc1Cl (centres undefined) | 64 µM | 11.4 µM | 10.4 µM | 1.56 µM | –
22 | COc1cccc2c1C(=O)c1c(O)c3c(c(O)c1C2=O)C[C@@](O)(C(=O)CO)C[C@@H]3O[C@H]1C[C@H](N)[C@H](O)[C@H](C)O1 [DOXORUBICIN] | 2.31 µM | 2.32 µM | 1.77 µM | 1.13 µM | IC50 (MCF-10A): 3.52 µM; IC50 (MRC5): 3.88 µM
